The record followed here is US11000033B2, “Ketone or oxime compound, and herbicide” (NISSAN CHEMICAL CORPORATION, priority 2014, dated 2021).

Format in all cases: in vivo
One series has as its system wheat. As to the kind of experiment: Test Example 5: effect on crop by foliage application, plastic box (symbol e). To be noted: 320 g/ha, 3 weeks after application. In outline:
(§1)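 Diluvial soil, sterilized and boxed (21 × 13 × 7 cm), received spot-sown seed covered by about 1.5 cm soil; plants were then greenhouse-grown at 25–30° C.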

The test system of a further series is rapeseed. Kind of series: Test Example 4: effect on crop by soil treatment (symbol g). As to conditions: 320 g/ha. The method, boiled down:
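Soil-treatment setup: crop and weed seeds were spot-sown into sterilized diluvial soil, then buried beneath approximately 1.5 cm of it, and the boxes were housed in a 25–30° C. greenhouse.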

The subject of another series is Abutilon theophrasti. Kind of series: Test Example 4: herbicidal effect by soil treatment (symbol M). As to conditions: 320 g/ha. The method, boiled down: (§2)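 Seeds were sown in sterilized diluvial soil, covered with about 1.5 cm of soil, and the soil surface was sprayed with a water-diluted emulsion of the compound at a predetermined rate. Plants grew in a greenhouse at 25° C. to 30° C.; effects were scored visually 3 weeks after application.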

The subject of the next series is Monochoria vaginalis. As to the kind of experiment: Test Example 1: herbicidal activity, application before weed generation in submerged conditions (symbol C). As to conditions: application herbicide amount 320 g/ha. In outline: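 Weed control was rated three weeks after treatment on a 0–5 scale, from 5% or lower up to 90% or more. Pre-emergence water-surface application of diluted emulsion at a predetermined rate was made on the day of sowing, in flooded (4 cm water) pots containing rice seedlings, kept at 25–30 °C under glass.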

A further series has as its system Galium spurium. As to the kind of experiment: Test Example 5: herbicidal effect by foliage application, plastic box (symbol Q). As to conditions: 320 g/ha, 3 weeks after application. In outline:
(§3)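 Post-emergence spray; diluvial soil (sterilized), ~1.5 cm seed cover; greenhouse 25–30° C; 14-day-old plants; water-diluted emulsion at predetermined dose; visual score at 3 wk post-treatment.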

A further series concerns Digitaria ciliaris. As to the kind of experiment: Test Example 4: herbicidal effect by soil treatment (symbol F). As to conditions: 320 g/ha. The method, boiled down:
as §2

The test system of a further series is beet. As to the kind of experiment: Test Example 5: effect on crop by foliage application, plastic box (symbol f). To be noted: 320 g/ha, 3 weeks after application. In outline: as §1
Another series concerns Leptochloa chinensis. As to the kind of experiment: Test Example 3: herbicidal effect by foliage application, Wagner pot (symbol D). To be noted: application herbicide amount 320 g/ha. The method, boiled down:
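Rating at 3 weeks post-spray, by defined criteria. Treatment: emulsion diluted with water to a predetermined amount, applied evenly to foliage of 14-day-old plants raised in alluvial soil flooded 0.1–0.5 cm deep at 25–30 °C, rice co-sown.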

For the next series, the system named is Amaranthus retroflexus. As to the kind of experiment: Test Example 4: herbicidal effect by soil treatment (symbol N). As to conditions: 320 g/ha. In outline: as §2
The next series has as its system Apera spica-venti. Kind of series: Test Example 5: herbicidal effect by foliage application, plastic box (symbol L). As to conditions: 320 g/ha, 3 weeks after application. The method, boiled down:
as §3

The subject of another series is corn. As to the kind of experiment: Test Example 5: effect on crop by foliage application, plastic box (symbol c). As to conditions: 320 g/ha, 3 weeks after application. The method, boiled down: as §1
The test system of series [1] is directly sowed rice plant. As to the kind of experiment: Test Example 3: effect on crop by foliage application, Wagner pot (symbol b). To be noted: application herbicide amount 320 g/ha. In outline:
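Wagner pot (1/10000 are), alluvial soil, submerged 0.1–0.5 cm; sown E. crus-galli var. crus-galli, L. chinensis, C. difformis, rice; greenhouse 25–30 °C.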

Another series has as its system transplanted rice plant. Kind of series: Test Example 1: effect on crop, application before weed generation in submerged conditions (symbol a). As to conditions: application herbicide amount 320 g/ha. In outline: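 Rice at 2.5 leaf stage transplanted into submerged soil (4 cm depth) sown with three weed species; herbicide applied before weed emergence.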

Structures are written as SMILES.

Turning to `CC(CC1CC(O)=C(c2c(C)cc(C)cc2C)C1=O)=NOCc1ccccc1[N+](=O)[O-]` (centres unmarked) [1-119], the “e: wheat, effect on crop (criteria 0-5)” value in the series on wheat is 4 (Herbicidal ratio of 70% or higher and lower than 90%). Besides, the “g: rapeseed, effect grade on crop” value in the series with rapeseed is 3 (Herbicidal ratio of 40% or higher and lower than 70%). In the series with Abutilon theophrasti, the “M: Abutilon theophrasti, herbicidal effect grade” value is given as 0 (Herbicidal ratio of 5% or lower (almost no effect)). Besides, the “Herbicidal effect grade, C: Monochoria vaginalis” value with Monochoria vaginalis is reported as 0 (Herbicidal ratio of 5% or lower (almost no effect)). For the same compound, the “Q: Galium spurium, herbicidal effect (criteria 0-5)” value in the series on Galium spurium is given as 0 (Herbicidal ratio of 5% or lower (almost no effect)). Moreover, the “F: Digitaria ciliaris, herbicidal effect grade” value in the series on Digitaria ciliaris is 4 (Herbicidal ratio of 70% or higher and lower than 90%). The “f: beet, effect on crop (criteria 0-5)” value in the series with beet is 0 (Herbicidal ratio of 5% or lower (almost no effect)). In addition, the “herbicidal effect on D (Leptochloa chinensis), grade 0-5” value in the series with Leptochloa chinensis was 4 (Herbicidal ratio of 70% or higher and lower than 90%). The “N: Amaranthus retroflexus, herbicidal effect grade” value in the series with Amaranthus retroflexus was 0 (Herbicidal ratio of 5% or lower (almost no effect)). Moreover, in the series on Apera spica-venti, the “L: Apera spica-venti, herbicidal effect (criteria 0-5)” value was 5 (Herbicidal ratio of 90% or more (almost completely withered)). Also, the “c: corn, effect on crop (criteria 0-5)” value in the series on corn was 2 (Herbicidal ratio of 20% or higher and lower than 40%). Moreover, the “effect on crop b (directly sowed rice plant), grade 0-5” value in [1] is 5 (Herbicidal ratio of 90% or more (almost completely withered)). Further, the “Effect grade on crop, a: transplanted rice plant” value in the series on transplanted rice plant is 3 (Herbicidal ratio of 40% or higher and lower than 70%).

Regarding `CON=C(C)CC1CC(OC(=O)CSc2ccccc2)=C(c2c(C)cc(C)cc2C)C1=O` (centres unmarked) [1-134], in the series on wheat, the “e: wheat, effect on crop (criteria 0-5)” value is 5 (Herbicidal ratio of 90% or more (almost completely withered)). Moreover, the “g: rapeseed, effect grade on crop” value with rapeseed is reported as 0 (Herbicidal ratio of 5% or lower (almost no effect)). Further, the “M: Abutilon theophrasti, herbicidal effect grade” value in the series with Abutilon theophrasti was 3 (Herbicidal ratio of 40% or higher and lower than 70%). Besides, in the series on Monochoria vaginalis, the “Herbicidal effect grade, C: Monochoria vaginalis” value is 1 (Herbicidal ratio of 5% or higher and lower than 20%). Besides, the “Q: Galium spurium, herbicidal effect (criteria 0-5)” value with Galium spurium was 4 (Herbicidal ratio of 70% or higher and lower than 90%). The “F: Digitaria ciliaris, herbicidal effect grade” value in the series with Digitaria ciliaris was 5 (Herbicidal ratio of 90% or more (almost completely withered)). Further, the “f: beet, effect on crop (criteria 0-5)” value in the series with beet is listed as 0 (Herbicidal ratio of 5% or lower (almost no effect)). Moreover, the “herbicidal effect on D (Leptochloa chinensis), grade 0-5” value in the series on Leptochloa chinensis is on record as 5 (Herbicidal ratio of 90% or more (almost completely withered)). Further, the “N: Amaranthus retroflexus, herbicidal effect grade” value in the series on Amaranthus retroflexus is 4 (Herbicidal ratio of 70% or higher and lower than 90%). Also, in the series with Apera spica-venti, the “L: Apera spica-venti, herbicidal effect (criteria 0-5)” value is reported as 5 (Herbicidal ratio of 90% or more (almost completely withered)). In addition, the “c: corn, effect on crop (criteria 0-5)” value in the series with corn is reported as 5 (Herbicidal ratio of 90% or more (almost completely withered)). For the same compound, in series [1], the “effect on crop b (directly sowed rice plant), grade 0-5” value is 5 (Herbicidal ratio of 90% or more (almost completely withered)). Also, in the series with transplanted rice plant, the “Effect grade on crop, a: transplanted rice plant” value is 5 (Herbicidal ratio of 90% or more (almost completely withered)).
